Columns and labels:
Assay in all cases: Histone peptide microarray
Assay type in all cases: binding, human
CHD5 (PPCC) = conditions: GST-tagged CHD5 (PPCC = Dual PHD + Dual Chromodomain); sheet Array Heatmap; each array performed twice, total n = 4
Outline: (§1)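 Mean ± SD of 4 replicate array intensities; GST-PHD finger at 0.5 μM against 293 PTM-bearing histone peptides.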

TAF3 = conditions: GST-tagged TAF3; sheet Array Heatmap; each array performed twice, total n = 4
Outline: as §1

PHF13 = conditions: GST-tagged PHF13; sheet Array Heatmap; each array performed twice, total n = 4
Outline: as §1

KDM5A (1) = conditions: GST-tagged KDM5A (1); sheet Array Heatmap; each array performed twice, total n = 4
Outline: as §1

CHD4 (PPCC) = conditions: GST-tagged CHD4 (PPCC = Dual PHD + Dual Chromodomain); sheet Array Heatmap; each array performed twice, total n = 4
Outline: as §1

BAZ2B = conditions: GST-tagged BAZ2B; sheet Array Heatmap; each array performed twice, total n = 4
Outline: as §1

RAG2 = conditions: GST-tagged RAG2; sheet Array Heatmap; each array performed twice, total n = 4
Outline: as §1

CHD5 (PCC) = conditions: GST-tagged CHD5 (PCC = PHD + Dual Chromodomain); sheet Array Heatmap; each array performed twice, total n = 4
Outline: as §1

DPF2 (PPC2W2) = conditions: GST-tagged DPF2 (PPC2W2 = Dual PHD + C2W2-type Zn-finger); sheet Array Heatmap; each array performed twice, total n = 4
Outline: as §1

KDM5A (3) = conditions: GST-tagged KDM5A (3); sheet Array Heatmap; each array performed twice, total n = 4
Outline: as §1

AIRE (PP) = conditions: GST-tagged AIRE (PP); sheet Array Heatmap; each array performed twice, total n = 4
Outline: as §1

KDM5B (1) = conditions: GST-tagged KDM5B (1); sheet Array Heatmap; each array performed twice, total n = 4
Outline: as §1

ING1 = conditions: GST-tagged ING1; sheet Array Heatmap; each array performed twice, total n = 4
Outline: as §1

PHF23 = conditions: GST-tagged PHF23; sheet Array Heatmap; each array performed twice, total n = 4
Outline: as §1

BPTF (PB) = conditions: GST-tagged BPTF (PB = PHD + Bromodomain); sheet Array Heatmap; each array performed twice, total n = 4
Outline: as §1

PHF21A = conditions: GST-tagged PHF21A; sheet Array Heatmap; each array performed twice, total n = 4
Outline: as §1

ING5 = conditions: GST-tagged ING5; sheet Array Heatmap; each array performed twice, total n = 4
Outline: as §1

ING3 = conditions: GST-tagged ING3; sheet Array Heatmap; each array performed twice, total n = 4
Outline: as §1

ING4 = conditions: GST-tagged ING4; sheet Array Heatmap; each array performed twice, total n = 4
Outline: as §1

ING2 = conditions: GST-tagged ING2; sheet Array Heatmap; each array performed twice, total n = 4
Outline: as §1

TRIM66 (PB) = conditions: GST-tagged TRIM66 (PB = PHD + Bromodomain); sheet Array Heatmap; each array performed twice, total n = 4
Outline: as §1

PHRF1 (RP) = conditions: GST-tagged PHRF1 (RP); sheet Array Heatmap; each array performed twice, total n = 4
Outline: as §1

KDM7A = conditions: GST-tagged KDM7A; sheet Array Heatmap; each array performed twice, total n = 4
Outline: as §1

PHF2 = conditions: GST-tagged PHF2; sheet Array Heatmap; each array performed twice, total n = 4
Outline: as §1

KDM5B (3) = conditions: GST-tagged KDM5B (3); sheet Array Heatmap; each array performed twice, total n = 4
Outline: as §1

PHF8 = conditions: GST-tagged PHF8; sheet Array Heatmap; each array performed twice, total n = 4
Outline: as §1

MORC3 (CW) = conditions: GST-tagged MORC3 (CW = CW-type Zn-finger); sheet Array Heatmap; each array performed twice, total n = 4
Outline: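 GST-tagged PHD finger readers were expressed, purified and applied at 0.5 μM to a microarray of 293 synthetic histone peptides carrying single or combinatorial PTMs, using an optimized protocol. Binding signals are averages with standard deviation from 4 replicates.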

KDM4C (TTP) = conditions: GST-tagged KDM4C (TTP = Tandem Tudor domain + PHD); sheet Array Heatmap; each array performed twice, total n = 4
Outline: as §1

SP140L = conditions: GST-tagged SP140L; sheet Array Heatmap; each array performed twice, total n = 4
Outline: as §1

DIDO1 = conditions: GST-tagged DIDO1; sheet Array Heatmap; each array performed twice, total n = 4
Outline: as §1

MLL5 = conditions: GST-tagged MLL5; sheet Array Heatmap; each array performed twice, total n = 4
Outline: as §1

For H3R2me2a + K4me3 + S10p: H3 1-20, the “Array Heatmap signal (histone peptide microarray)” value (shortened to “Array Heatmap signal”) (CHD5 (PPCC)) was 0.5451, the “Array Heatmap signal” value (TAF3) was 0.3453 and the “Array Heatmap signal” value (PHF13) was 0.6271. The “Array Heatmap signal” value (KDM5A (1)) was 0.4568, the “Array Heatmap signal” value (CHD4 (PPCC)) was 0.5987 and the “Array Heatmap signal” value (BAZ2B) was 0.4437. The “Array Heatmap signal” value (RAG2) was 0.4658, the “Array Heatmap signal” value (CHD5 (PCC)) was 0.741 and the “Array Heatmap signal” value (DPF2 (PPC2W2)) was 0.7179. For the same substance, the “Array Heatmap signal” value (KDM5A (3)) was 0.7062, the “Array Heatmap signal” value (AIRE (PP)) was 0.4162 and the “Array Heatmap signal” value (KDM5B (1)) was 0.6814. For the same substance, the “Array Heatmap signal” value (ING1) was 0.6296, the “Array Heatmap signal” value (PHF23) was 0.5952 and the “Array Heatmap signal” value (BPTF (PB)) was 0.396. The “Array Heatmap signal” value (PHF21A) was 0.4392, the “Array Heatmap signal” value (ING5) was 0.3497 and the “Array Heatmap signal” value (ING3) was 0.4991. The “Array Heatmap signal” value (ING4) was 0.4698, the “Array Heatmap signal” value (ING2) was 0.6788 and the “Array Heatmap signal” value (TRIM66 (PB)) was 0.5905. For the same substance, the “Array Heatmap signal” value (PHRF1 (RP)) was 0.4776, the “Array Heatmap signal” value (KDM7A) was 0.3687 and the “Array Heatmap signal” value (PHF2) was 0.8067. For the same substance, the “Array Heatmap signal” value (KDM5B (3)) was 0.5192, the “Array Heatmap signal” value (PHF8) was 0.5293 and the “Array Heatmap signal” value (MORC3 (CW)) was 0.6914. For the same substance, the “Array Heatmap signal” value (KDM4C (TTP)) was 0.4873, the “Array Heatmap signal” value (SP140L) was 0.356 and the “Array Heatmap signal” value (DIDO1) was 0.8994. For the same substance, the “Array Heatmap signal” value (MLL5) was 0.6475.
